Laboratory results as given in US9944967B2, “Methods for the site-selective introduction of halogen into natural products” (THE REGENTS OF THE UNIVERSITY OF CALIFORNIA, priority 2013, dated 2018).

Assays:
[1] = molecular target: T1, DEBSMod2/AT^0 (Saccharopolyspora erythraea, UniProt Q03131, S2598A); assay: Triketide lactone production using DEBSMod2/AT0; format: biochemical; conditions: overnight; for conversion of NDK-SNAC to R-TKL: NDK-SNAC (500 μM), respective acyl-CoA regeneration system
T1 construct: MBP (N); His6 (C); His6 (N); made in house; host or cells: E. coli BAP1 (pRARE2 co-expressed)
Experimental: All assay mixtures contained 400 mM sodium phosphate, pH 7.5, phosphoenolpyruvate (20 mM), TCEP (5 mM), magnesium chloride (5 mM), ATP (2.5 mM), pyruvate kinase (18 U/mL), myokinase (10 U/mL), methylmalonyl-CoA epimerase (5 μM), CoA (1 mM), MatB (20 μM), NDK-SNAC (500 μM) and either methylmalonate, fluoromalonate or malonate (5 mM) as appropriate. Reactions were initiated by addition of DEBSMod2/AT^0 (10 μM) and incubated at 37° C. overnight. Aliquots were removed, quenched by addition of HCl to 1 M, then processed and analyzed as described above.

[2] = tested on: DEBSMod6+TE; assay: Time-course of TKL and F-TKL formation by DEBSMod6+TE with substrate regeneration; format: biochemical
Experimental: Assay and preparative mixtures contained 400 mM sodium phosphate, pH 7.5, phosphoenolpyruvate (50 mM), TCEP (5 mM), magnesium chloride (10 mM), ATP (2.5 mM), pyruvate kinase (27 U/mL), myokinase (10 U/mL), CoA (0.5 mM), methylmalonyl-CoA epimerase (5 μM), MatB (40 μM or as specified) and fluoro- or methylmalonate (10-20 mM). […] This mixture was incubated at 37° C. for 30-45 min and then initiated by addition of the N-acetylcysteamine thioester of (2S,3R)-2-methyl-3-hydroxypentanoic acid (NDK-SNAC, 1-10 mM) (Cane, D. E., et al., J. Am. Chem., 115:527-535 (1993)) and DEBSMod6+TE (10 μM). Aliquots (35 μL) were removed and quenched by addition of 70% perchloric acid (1.75 μL). […] The supernatant was removed and analyzed on a Zorbax Eclipse XDB C-18 column (3.5 μm, 3×150 mm, 35° C., Agilent) using a linear gradient from 0 to 40% acetonitrile over 14 min with 0.1% formic acid as the aqueous mobile phase after an initial hold at 0% acetonitrile for 30 s (0.8 mL/min) Products were monitored using an Agilent G1315D diode array detector (TKL, A260 nm or A275 nm, F-TKL, A247 nm, NDK-SNAC; A260 nm). […] For absolute quantification, each analyte was compared to an external standard curve. […] The concentrations of TKL and H-TKL were determined by ^1H NMR in D2O using the ERETIC method against an external standard of diethylfluoromalonate (75 mM).

[3] = tested on: DEBSMod6+TE; assay: Triketide lactone production under competitive conditions; format: biochemical
Experimental: For reactions with substrate regeneration, assay mixtures contained 400 mM sodium phosphate, pH 7.5, phosphoenolpyruvate (50 mM), TCEP (5 mM), magnesium chloride (10 mM), ATP (2.5 mM), pyruvate kinase (27 U/mL), myokinase (10 U/mL), methylmalonyl-CoA epimerase (5 μM), NDK-SNAC (15 mM) and DEBSMod6+TE (10 μM). Reactions were initiated by simultaneous addition of MatB (40 μM), fluoromalonyl-CoA (1 μM) and malonyl-CoA (1 μM) and incubated at 37° C. for 18-20 h. Protein was removed by filtration through a 3 kDa NWCO membrane at 14,000×g and the filtrate was analyzed by LC-MS. Standards of H-TKL and F-TKL were prepared using a mock reaction mixture (acyl-CoAs replaced by CoAs and NDK-SNAC replaced by N-acetyl cysteamine) as diluent. TKLs were quantified using single ion monitoring, H-TKL in positive mode and F-TKL in negative mode. For reactions without substrate regeneration, assay mixtures contained 400 mM sodium phosphate, pH 7.5, TCEP (5 mM), methylmalonyl-CoA epimerase (5 μM), NDK-SNAC (3 mM) and DEBSMod6+TE (10 μM). Reactions were initiated by adding fluoromalonyl-CoA (1 mM) and malonyl-CoA (1 mM) simultaneously. The mixtures were incubated at 37° C. for 20 h, then quenched, processed and analyzed as described above. H-TKL was monitored using an Agilent 6130 MS operating in positive ion mode, and the limit of detection was verified by spiking samples to 50 nM H-TKL using a standard solution.

[4] = molecular target: T2, acetyl-CoA carboxylase (ACCase) (Escherichia coli, UniProt P0A9Q5+P0ABD5); assay: Acetyl-CoA carboxylase discontinuous HPLC assay with AckA-Pta; format: biochemical, E. coli
T2 construct: made in house; host or cells: E. coli BL21(de3)T1R
Experimental: ACCase activity was measured using a discontinuous HPLC assay. Assays were performed at 30° C. in a total volume of 200 μL containing 50 mM HEPES, pH 7.5, TCEP (10 mM), bovine serum albumin (3 mg/mL), CoA (0.5 mM), ATP (2.5 mM), magnesium chloride (10 mM), sodium bicarbonate (75 mM), acetate or fluoroacetate (10 mM), phosphoenolpyruvate (10 mM), pyruvate kinase (4 U), AckA (0.1 μM), Pta (10 μM) and ACCase (15 μM). The pH of the buffer remained unchanged after addition of sodium bicarbonate. ACCase stock solution was prepared by pre-mixing the protein subunits at equimolar ratio (85 μM) except for AccB, which was added at 1.5-fold molar excess. The reaction was initiated with addition of ATP. Aliquots (20 μL) were removed and quenched by the addition of 70% perchloric acid (1 μL). Insoluble material was removed by centrifugation and the supernatant was analyzed on an Agilent 1200 or 1290 HPLC system on a LiChroCART 250-4 Purospher RP-18e column (5 μm, 4.6×250 mm, Millipore) and monitored at A260 nm. For reactions with acetate, a linear gradient from 2 to 20% acetonitrile over 10 min with 5 mM sodium phosphate and 5 mM sodium citrate with 0.1% trifluoroacetic acid, pH 4.6 as the aqueous mobile phase (1 mL/min) was used to analyze the reaction. […]

[5] = molecular target: T3, DEBSMod6+TE (Saccharopolyspora erythraea, UniProt Q03133); assay: Acyl-CoA hydrolysis by DEBSMod6+TE (DTNB assay); format: biochemical; conditions: for v0 (rate of acyl-CoA hydrolysis): DEBSMod6 + TE (1 μM), acyl-CoA (500 μM), mean ± s.d. (n = 4); for Relative rate of acyl-CoA hydrolysis: relative to methylmalonyl-CoA
T3 construct: the sixth module of DEBS, including the terminal thioesterase (DEBSMod6+TE); His6 (C); made in house; host or cells: E. coli BAP1
Experimental: Hydrolytic activity of DEBSMod6+TE was measured by monitoring the reaction of free CoA with DTNB as described previously (Huang, F., et al., Chem. Biol., 13:475-484 (2006)). Assays were performed at 37° C. in a total volume of 200 μL containing 400 mM sodium phosphate, pH 7.5, 500 μM DTNB, and DEBSMod6+TE (1 μM). Reactions were initiated by addition of acyl-CoA (0.5 mM) and monitored at 412 nm in a Beckman Coulter DU-800 spectrophotometer. Release of CoA was quantified by comparison to a standard curve (5-100 μM).

[6] = molecular target: T4, NphT7 (Streptomyces sp., UniProt D7URV0); assay: Acetoacetyl-CoA synthase NphT7 NADPH-coupled assay with PhaB; format: biochemical; conditions: NphT7 reaction product
T4 construct: made in house; host or cells: E. coli BL21(de3)T1R
T4 sequence (D7URV0 1-329): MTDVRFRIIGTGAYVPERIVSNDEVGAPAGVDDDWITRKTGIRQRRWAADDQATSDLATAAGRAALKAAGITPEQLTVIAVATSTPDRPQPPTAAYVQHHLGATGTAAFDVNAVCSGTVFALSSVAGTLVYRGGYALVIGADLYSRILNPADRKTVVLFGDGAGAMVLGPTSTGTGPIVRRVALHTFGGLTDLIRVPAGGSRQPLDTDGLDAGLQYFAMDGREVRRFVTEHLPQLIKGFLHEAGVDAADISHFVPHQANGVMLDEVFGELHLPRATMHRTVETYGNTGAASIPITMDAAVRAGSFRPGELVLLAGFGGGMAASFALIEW
Experimental: NphT7 activity was measured using a NADPH-coupled assay with PhaB. Assays were performed at 30° C. in a total volume of 500 μL containing 50 mM HEPES, pH 7.5, NADPH (160 μM), acetyl-CoA (200 μM), PhaB (0.05 mg/mL), NphT7 (0.2 μM for malonyl-CoA; 0.5 μM for fluoromalonyl-CoA) and malonyl-CoA (5-150 μM) or fluoromalonyl-CoA (5-200 μM). Reactions were initiated with the addition of malonyl- or fluoromalonyl-CoA and monitored at 340 nm in an Agilent 8453 diode array spectrophotometer. The PhaB-coupled assay was tested both by doubling NphT7, which doubled the initial velocity with both the fluorinated and non-fluorinated substrates, and also by doubling the amount of PhaB, which led to no difference in initial velocity.

[7] = MatB regeneration, equimolar malonyl-CoA and fluoromalonyl-CoA, mean ± s.d. (n = 3)

Question: How did the “conversion of NDK-SNAC to R-TKL” value [1] turn out when `CC[C@H]1OC(=O)[C@@H](F)C(=O)[C@H]1C` [F-TKL, (2S,4S,5R)-2-fluoro-4-methyl-3-oxo-5-hydroxy-n-heptanoic Acid δ-lactone] was run?
Answer: 43%

Question: What about the “Initial rate of F-TKL formation” value ([2]; 10 mM NDK-SNAC) of the same molecule?
Answer: 0.14 h⁻¹

Question: What about the “[F-TKL]/[H-TKL]” value ([3]; MatB regeneration) of the same molecule?
Answer: 10.3 ± 0.1

Question: What about the “[F-TKL]” value [3, 7] of the same molecule?
Answer: 7,390 ± 520 nM

Question: What about the “[F-TKL]/[H-TKL]” value ([3]; No regeneration) of the same molecule?
Answer: >9

Question: What about the “[F-TKL]” value ([3]; No regeneration, equimolar malonyl-CoA and fluoromalonyl-CoA (1 mM), mean ± s.d. (n = 3)) of the same molecule?
Answer: 450 ± 60 nM

Question: And the “fold more F-TKL than H-TKL produced” value ([3]; direct competition, equimolar (1 mM) fluoromalonyl-CoA and malonyl-CoA)?
Answer: at least 10 fold

Question: How did the “fold slower rate of conversion compared to acetate” value ([4]; one-pot AckA-Pta/ACCase carboxylation) turn out when `O=C(O)CF` [Fluoroacetate, reference compound] was run?
Answer: 4.5 fold

Question: What does the source list for `CCC1OC(=O)CC(O)C1C` (stereo not drawn) [H-TKL, 2-desmethyltriketide lactone, reference compound]?
Answer: conversion of NDK-SNAC to R-TKL [1]: < 0.01%; [H-TKL] [3, 7]: 720 ± 50 nM; [H-TKL] ([3]; No regeneration, equimolar malonyl-CoA and fluoromalonyl-CoA (1 mM)): <50 nM

Question: With `CC(C)(COP(=O)(O)OP(=O)(O)OC[C@H]1O[C@@H](n2cnc3c(N)ncnc32)[C@H](O)[C@@H]1OP(=O)(O)O)[C@@H](O)C(=O)NCCC(=O)NCCSC(=O)CC(=O)O` [Malonyl-CoA] as the molecule, how does the “v0 (rate of acyl-CoA hydrolysis)” value [5] read?
Answer: 6.1 ± 0.4 µM/min

Question: What about the “Relative rate of acyl-CoA hydrolysis” value [5] of the same molecule?
Answer: 4.5

Question: How did the “v0 (rate of acyl-CoA hydrolysis)” value [5] turn out when `CC(C(=O)O)C(=O)SCCNC(=O)CCNC(=O)[C@H](O)C(C)(C)COP(=O)(O)OP(=O)(O)OC[C@H]1O[C@@H](n2cnc3c(N)ncnc32)[C@H](O)[C@@H]1OP(=O)(O)O` (stereo partly drawn) [Methylmalonyl-CoA] was run?
Answer: 1.36 ± 0.05 µM/min

Question: And the “Relative rate of acyl-CoA hydrolysis” value [5]?
Answer: 1.0

Question: How did the NDK-SNAC consumed ([1]; fluoromalonyl-CoA regeneration system) turn out when `CC[C@@H](O)[C@H](C)C(=O)SCCNC(C)=O` [NDK-SNAC, (2S,3R)-2-methyl-3-hydroxypentanoyl-N-acetylcysteamine thioester] was run?
Answer: 82%

Question: What about the NDK-SNAC consumed ([1]; malonyl-CoA regeneration system) of the same molecule?
Answer: 100%

Question: `CC[C@H]1OC(=O)[C@H](C)C(=O)[C@H]1C` [TKL, (2R,4S,5R)-2,4-Dimethyl-3-oxo-5-hydroxy-n-heptanoic acid β-lactone, reference compound] was tested. Which “conversion of NDK-SNAC to R-TKL” value [1] did it give?
Answer: all

Question: What about the “Initial rate of TKL formation” value ([2]; 2.5 mM NDK-SNAC) of the same molecule?
Answer: 1.5 min⁻¹

Question: With `CC(=O)C(F)C(=O)SCCNC(=O)CCNC(=O)[C@H](O)C(C)(C)COP(=O)(O)OP(=O)(O)OC[C@H]1O[C@@H](n2cnc3c(N)ncnc32)[C@H](O)[C@@H]1OP(=O)(O)O` (stereo partly drawn) [acetofluoroacetyl-CoA] as the molecule, how does the “stability under the assay conditions” value [6] read?
Answer: degrade fairly rapidly

Question: Which “covalent inactivation of the ACCase” value ([4]; judged from overall extent of reaction) does the source give for `CC(C)(COP(=O)(O)OP(=O)(O)OC[C@H]1O[C@@H](n2cnc3c(N)ncnc32)[C@H](O)[C@@H]1OP(=O)(O)O)[C@@H](O)C(=O)NCCC(=O)NCCSC(=O)CF` [fluoroacetyl-CoA] here?
Answer: not significant
